Results published in publication PMC8406200, “SAMase of Bacteriophage T3 Inactivates Escherichia coli’s Methionine S-Adenosyltransferase by Forming Heteropolymers” (mBio, 2021).

T1: U. urealyticum MAT (UuMAT) (Ureaplasma urealyticum, UniProt A0ABM9XK24)
T1 construct: gene metK
T1 sequence (A0ABM9XK24 1-376): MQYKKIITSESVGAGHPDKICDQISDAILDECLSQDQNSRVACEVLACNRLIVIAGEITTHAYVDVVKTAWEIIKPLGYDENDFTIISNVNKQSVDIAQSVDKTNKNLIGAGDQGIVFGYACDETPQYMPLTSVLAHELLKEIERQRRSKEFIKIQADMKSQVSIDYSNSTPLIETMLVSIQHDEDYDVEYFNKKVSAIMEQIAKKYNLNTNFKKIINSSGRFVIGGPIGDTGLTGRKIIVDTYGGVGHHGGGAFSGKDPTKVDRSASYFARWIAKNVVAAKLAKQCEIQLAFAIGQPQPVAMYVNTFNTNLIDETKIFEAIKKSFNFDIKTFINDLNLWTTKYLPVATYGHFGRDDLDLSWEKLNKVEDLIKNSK

T2: N. gonorrhea MAT (NgMAT) (Neisseria gonorrhoeae, UniProt Q5FAC0)
T2 construct: gene metK
T2 sequence (Q5FAC0 1-389): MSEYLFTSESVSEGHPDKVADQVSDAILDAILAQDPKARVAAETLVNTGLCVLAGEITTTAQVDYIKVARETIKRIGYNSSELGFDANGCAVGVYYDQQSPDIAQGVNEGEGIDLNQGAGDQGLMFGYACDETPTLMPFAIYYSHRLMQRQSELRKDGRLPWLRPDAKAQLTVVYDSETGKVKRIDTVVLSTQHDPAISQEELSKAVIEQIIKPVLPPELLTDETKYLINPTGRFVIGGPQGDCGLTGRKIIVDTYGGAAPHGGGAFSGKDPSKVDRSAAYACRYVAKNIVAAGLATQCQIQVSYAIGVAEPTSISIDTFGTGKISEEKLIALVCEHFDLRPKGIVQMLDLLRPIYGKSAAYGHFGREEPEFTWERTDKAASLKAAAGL

T3: E. coli MAT (EcMAT) (Escherichia coli, UniProt P0A817)
T3 construct: gene metK; C-terminal His6 tag, full length, pET24a, BL21(DE3); homotetramer (dimer of dimers), ~43 kDa subunit
T3 sequence (P0A817 2-384): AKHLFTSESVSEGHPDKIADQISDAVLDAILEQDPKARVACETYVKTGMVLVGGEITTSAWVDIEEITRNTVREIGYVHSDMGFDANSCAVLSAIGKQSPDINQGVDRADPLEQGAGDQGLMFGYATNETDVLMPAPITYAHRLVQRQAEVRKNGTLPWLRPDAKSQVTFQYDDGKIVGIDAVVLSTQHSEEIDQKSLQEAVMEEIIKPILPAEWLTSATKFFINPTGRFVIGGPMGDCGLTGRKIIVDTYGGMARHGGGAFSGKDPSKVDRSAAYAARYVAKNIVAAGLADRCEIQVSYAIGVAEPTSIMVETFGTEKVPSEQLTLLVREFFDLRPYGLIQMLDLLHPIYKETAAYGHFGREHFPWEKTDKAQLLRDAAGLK

B1: S-Adenosylmethionine lyase (SAMase) of bacteriophage T3, C-terminal His-tagged (enzyme)
chain: MIFTKEPAHVFYVLVSAFRSNLCDEVNMSRHRHMVSTLRAAPGLYGSVESTDLTGCYREAISSAPTEEKTVRVRCKDKAQALNVARLACNEWEQDCVLVYKSQTHTAGLVYAKGIDGYKAERLPGSFQEVPKGAPLQGCFTIDEFGRRWQVQ
notes: S-adenosylmethionine lyase (SAMase) of bacteriophage T3, UniProt P07693; gene synthesized de novo with six His codons at the 3' end; anticipated monomer size around 17 kDa; Dimer by SEC, cross-linking and cryo-EM; also called T3 SAMase; 6×His-tagged SAMase; not shown: His6, C-terminal, kept
B2: E. coli methionine S-adenosyltransferase (MAT), recombinant, C-terminal His6 (enzyme, E. coli MG1655, UniProt P0A817 1-384, looked up)
chain: MAKHLFTSESVSEGHPDKIADQISDAVLDAILEQDPKARVACETYVKTGMVLVGGEITTSAWVDIEEITRNTVREIGYVHSDMGFDANSCAVLSAIGKQSPDINQGVDRADPLEQGAGDQGLMFGYATNETDVLMPAPITYAHRLVQRQAEVRKNGTLPWLRPDAKSQVTFQYDDGKIVGIDAVVLSTQHSEEIDQKSLQEAVMEEIIKPILPAEWLTSATKFFINPTGRFVIGGPMGDCGLTGRKIIVDTYGGMARHGGGAFSGKDPSKVDRSAAYAARYVAKNIVAAGLADRCEIQVSYAIGVAEPTSIMVETFGTEKVPSEQLTLLVREFFDLRPYGLIQMLDLLHPIYKETAAYGHFGREHFPWEKTDKAQLLRDAAGLK
notes: Homotetramer (dimer of dimers); also called EcMAT; E. coli MAT; source: E. coli BL21(DE3) (pET24a), purified (Ni-NTA, SEC)

Experiments:
[1] = biological target: T1, U. urealyticum MAT (UuMAT); experiment: HPLC (SCX, […] nm) of SAM / MTA formation; format: biochemical; details: 80 μM ATP, 1 mM methionine, 250 nM enzyme; pH 7.5, 10 mM MgCl2, 37°C
N. gonorrhea MAT (NgMAT) = biological target: T2, N. gonorrhea MAT (NgMAT); experiment: HPLC (SCX, […] nm) of SAM / MTA formation; format: biochemical; details: 80 μM ATP, 1 mM methionine, 250 nM enzyme; pH 7.5, 10 mM MgCl2, 37°C
E. coli MAT (EcMAT) [2] = biological target: T4, E. coli MAT (EcMAT) (Escherichia coli, UniProt P0A817, D132P/V133T/I178V/I211V/A214P, form not given); experiment: HPLC (SCX, […] nm) of SAM / MTA formation; format: biochemical; details: mutant EcMAT; methionine as co-substrate; pH 7.5, 10 mM MgCl2, 37°C; W26L as printed (position doubtful, probably W216L)
T4 construct: gene metK; C-terminal His6 tag, full length, pET24a, BL21(DE3); homotetramer (dimer of dimers), ~43 kDa subunit
T4 sequence (P0A817 2-384 D132P/V133T/I178V/I211V/A214P, form open): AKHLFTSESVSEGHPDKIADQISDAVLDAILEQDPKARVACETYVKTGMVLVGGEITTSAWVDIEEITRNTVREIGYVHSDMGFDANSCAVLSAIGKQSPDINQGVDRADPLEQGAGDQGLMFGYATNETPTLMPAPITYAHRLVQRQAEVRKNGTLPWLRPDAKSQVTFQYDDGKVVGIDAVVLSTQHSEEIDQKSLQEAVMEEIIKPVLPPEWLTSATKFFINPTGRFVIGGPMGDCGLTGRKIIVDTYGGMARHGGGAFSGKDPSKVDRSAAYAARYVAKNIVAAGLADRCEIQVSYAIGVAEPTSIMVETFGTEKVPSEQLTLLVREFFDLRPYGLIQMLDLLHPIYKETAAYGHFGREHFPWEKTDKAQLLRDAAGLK

E. coli MAT (EcMAT) [3] = biological target: T3, E. coli MAT (EcMAT); experiment: HPLC (SCX, […] nm) of SAM formation; format: biochemical; details: 80 μM ATP, 1 mM methionine, 250 nM enzyme; 25 mM HEPES pH 7.5, 100 mM KCl, 10 mM MgCl2, 1 mM DTT; 37°C; no SAMase
[4] = biological target: the molecule itself; experiment: SEC; SAMase alone on Superdex 200 Increase 10/300 GL against protein standards; natively purified and refolded SAMase; 25 mM Tris pH 8.0, 150 mM KCl, 1 mM DTT
[5] = biological target: B2; experiment: cryo-EM structure; refolded SAMase and E. coli MAT mixed 1:1 (160 μM monomer each) with 500 μM SAM, preincubated 48 h, high-molecular-weight SEC peak; single-particle, no symmetry imposed (C1); details: both partners purified
[6] = biological target: the molecule itself; experiment: as above

| Molecule | HPLC (SCX, 254 nm) of SAM / MTA formation [1] | HPLC (SCX, 254 nm) of SAM / MTA formation (N. gonorrhea MAT (NgMAT)) | HPLC (SCX, 254 nm) of SAM / MTA formation (E. coli MAT (EcMAT) [2]) | HPLC (SCX, 254 nm) of SAM formation (E. coli MAT (EcMAT) [3]) | stoichiometry N [4] | binding result [5] | stoichiometry N [6] |
| --- | --- | --- | --- | --- | --- | --- | --- |
| Nc1ncnc2c1ncn2[C@@H]1O[C@H](COP(=O)(O)OP(=O)(O)OP(=O)(O)O)[C@@H](O)[C@H]1O [ATP] | Synthesis of SAM from ATP and methionine of MAT proteins was conducted | Synthesis of SAM from ATP and methionine of MAT proteins was conducted | mutant E. coli MAT (EcMAT mut) was measured either alone (blue trace, rate of SAM production | Synthesis of SAM from ATP and methionine by E. coli MAT was conducted in the absence |  |  |  |
| CSCC[C@H](N)C(=O)O [methionine] | Synthesis of SAM from ATP and methionine of MAT proteins was conducted | Synthesis of SAM from ATP and methionine of MAT proteins was conducted |  | Synthesis of SAM from ATP and methionine by E. coli MAT was conducted in the absence |  |  |  |
| B1 |  |  |  |  | 2 | binds |  |
| B2 |  |  |  |  |  |  | 4 |
